Experiments:
Type in all cases: binding
[1] = target: T1, kinases (KINOMEscan panel) (Homo sapiens, UniProt Q9BXA7); details: kinase TSSK1B; NEW KINOMEscan
T1 sequence (Q9BXA7 1-367): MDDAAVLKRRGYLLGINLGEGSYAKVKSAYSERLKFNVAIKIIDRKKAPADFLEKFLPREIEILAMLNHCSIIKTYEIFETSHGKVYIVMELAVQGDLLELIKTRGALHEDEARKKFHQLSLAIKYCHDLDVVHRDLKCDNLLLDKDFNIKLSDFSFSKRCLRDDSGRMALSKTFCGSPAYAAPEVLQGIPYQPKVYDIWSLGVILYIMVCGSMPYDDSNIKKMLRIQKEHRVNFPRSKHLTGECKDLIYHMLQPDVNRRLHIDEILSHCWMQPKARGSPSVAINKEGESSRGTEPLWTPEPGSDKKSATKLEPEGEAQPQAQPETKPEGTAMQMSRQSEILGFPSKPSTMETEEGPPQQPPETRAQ

[2] = target: T2, kinases (KINOMEscan panel) (Homo sapiens, UniProt P54760); details: EPHB4; NEW KINOMEscan
T2 sequence (P54760 16-987): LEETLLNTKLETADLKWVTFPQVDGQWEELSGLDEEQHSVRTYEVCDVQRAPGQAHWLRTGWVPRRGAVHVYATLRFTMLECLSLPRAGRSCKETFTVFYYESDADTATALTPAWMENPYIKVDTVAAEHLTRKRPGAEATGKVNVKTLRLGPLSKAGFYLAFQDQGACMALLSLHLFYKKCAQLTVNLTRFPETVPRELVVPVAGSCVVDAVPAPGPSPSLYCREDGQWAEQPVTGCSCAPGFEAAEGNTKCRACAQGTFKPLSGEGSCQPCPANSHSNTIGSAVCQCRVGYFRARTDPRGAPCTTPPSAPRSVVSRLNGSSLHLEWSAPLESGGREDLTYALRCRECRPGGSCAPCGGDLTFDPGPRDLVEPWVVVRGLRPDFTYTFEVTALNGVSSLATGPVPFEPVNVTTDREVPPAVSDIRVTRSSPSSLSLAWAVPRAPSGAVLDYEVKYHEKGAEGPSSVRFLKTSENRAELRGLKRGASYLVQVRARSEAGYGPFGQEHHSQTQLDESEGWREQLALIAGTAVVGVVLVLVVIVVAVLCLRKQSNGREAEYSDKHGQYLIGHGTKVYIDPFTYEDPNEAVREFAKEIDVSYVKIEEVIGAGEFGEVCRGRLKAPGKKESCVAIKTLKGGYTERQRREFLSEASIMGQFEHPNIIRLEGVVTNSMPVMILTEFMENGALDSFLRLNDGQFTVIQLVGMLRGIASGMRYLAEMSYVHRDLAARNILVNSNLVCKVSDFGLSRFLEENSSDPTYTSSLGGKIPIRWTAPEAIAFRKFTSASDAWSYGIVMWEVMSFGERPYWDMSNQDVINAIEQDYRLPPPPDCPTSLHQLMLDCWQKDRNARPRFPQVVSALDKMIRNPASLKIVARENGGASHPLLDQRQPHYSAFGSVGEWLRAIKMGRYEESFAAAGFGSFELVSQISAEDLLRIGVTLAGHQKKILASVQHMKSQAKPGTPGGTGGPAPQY

[3] = target: T3, kinases (KINOMEscan panel) (Homo sapiens, UniProt O15075); details: NEW KINOMEscan
T3 sequence (O15075 1-740): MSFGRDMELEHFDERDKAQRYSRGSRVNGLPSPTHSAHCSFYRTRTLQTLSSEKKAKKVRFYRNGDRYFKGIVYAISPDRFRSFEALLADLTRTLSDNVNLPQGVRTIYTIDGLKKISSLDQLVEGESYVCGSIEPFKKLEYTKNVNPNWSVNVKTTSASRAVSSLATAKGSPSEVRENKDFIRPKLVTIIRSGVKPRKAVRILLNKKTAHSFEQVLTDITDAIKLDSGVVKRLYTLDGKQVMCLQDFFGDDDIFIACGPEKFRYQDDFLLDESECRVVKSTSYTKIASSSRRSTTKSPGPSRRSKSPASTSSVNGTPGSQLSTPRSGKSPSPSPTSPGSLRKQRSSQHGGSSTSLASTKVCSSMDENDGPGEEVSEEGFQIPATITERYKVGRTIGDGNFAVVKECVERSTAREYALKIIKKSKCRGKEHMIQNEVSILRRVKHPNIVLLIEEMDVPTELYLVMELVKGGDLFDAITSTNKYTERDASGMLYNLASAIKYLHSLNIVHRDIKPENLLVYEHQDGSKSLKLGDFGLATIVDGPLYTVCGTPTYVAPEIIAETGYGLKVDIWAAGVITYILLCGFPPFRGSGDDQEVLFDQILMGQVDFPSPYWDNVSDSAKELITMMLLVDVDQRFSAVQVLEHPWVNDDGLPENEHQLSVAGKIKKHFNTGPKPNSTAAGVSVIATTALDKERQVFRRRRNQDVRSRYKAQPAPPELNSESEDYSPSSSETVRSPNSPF

[4] = target: kinases (KINOMEscan panel) (Homo sapiens, UniProt P00533); details: kinase EGFR; NEW KINOMEscan
Chain of kinases (KINOMEscan panel) (Homo sapiens, UniProt P00533) (P00533 25-1210): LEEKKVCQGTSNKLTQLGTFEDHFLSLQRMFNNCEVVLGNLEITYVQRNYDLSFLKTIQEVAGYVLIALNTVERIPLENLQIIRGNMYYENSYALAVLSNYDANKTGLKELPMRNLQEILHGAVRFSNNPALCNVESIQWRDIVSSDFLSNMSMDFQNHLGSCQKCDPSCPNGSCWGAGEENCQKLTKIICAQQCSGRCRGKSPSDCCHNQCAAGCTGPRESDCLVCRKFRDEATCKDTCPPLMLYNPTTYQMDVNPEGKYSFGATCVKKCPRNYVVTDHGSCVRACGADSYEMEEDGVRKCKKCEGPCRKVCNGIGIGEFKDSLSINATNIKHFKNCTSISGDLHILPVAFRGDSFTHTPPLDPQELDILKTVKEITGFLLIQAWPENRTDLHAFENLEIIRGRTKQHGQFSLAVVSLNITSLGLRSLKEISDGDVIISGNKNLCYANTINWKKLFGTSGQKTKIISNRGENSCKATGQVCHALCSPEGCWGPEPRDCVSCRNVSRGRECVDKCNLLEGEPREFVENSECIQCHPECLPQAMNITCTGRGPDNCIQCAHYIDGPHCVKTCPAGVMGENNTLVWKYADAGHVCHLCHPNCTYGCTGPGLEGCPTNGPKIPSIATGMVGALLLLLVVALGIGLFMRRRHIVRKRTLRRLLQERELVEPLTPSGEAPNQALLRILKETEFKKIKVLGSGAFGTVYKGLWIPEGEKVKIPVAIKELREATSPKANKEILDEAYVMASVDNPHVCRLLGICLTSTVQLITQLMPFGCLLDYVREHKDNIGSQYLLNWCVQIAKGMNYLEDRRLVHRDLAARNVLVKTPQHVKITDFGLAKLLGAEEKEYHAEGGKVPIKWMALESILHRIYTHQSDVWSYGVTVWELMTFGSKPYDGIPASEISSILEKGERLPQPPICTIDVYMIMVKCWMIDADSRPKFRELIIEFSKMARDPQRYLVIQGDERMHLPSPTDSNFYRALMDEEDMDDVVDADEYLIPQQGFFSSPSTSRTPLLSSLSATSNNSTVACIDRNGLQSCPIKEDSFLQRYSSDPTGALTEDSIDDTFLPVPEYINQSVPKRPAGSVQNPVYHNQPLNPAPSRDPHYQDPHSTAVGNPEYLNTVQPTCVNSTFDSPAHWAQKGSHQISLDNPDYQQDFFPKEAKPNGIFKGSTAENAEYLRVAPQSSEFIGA

[5] = target: kinases (KINOMEscan panel) (Homo sapiens, UniProt Q9H3Y6); details: NEW KINOMEscan
Chain of kinases (KINOMEscan panel) (Homo sapiens, UniProt Q9H3Y6) (Q9H3Y6 whole entry): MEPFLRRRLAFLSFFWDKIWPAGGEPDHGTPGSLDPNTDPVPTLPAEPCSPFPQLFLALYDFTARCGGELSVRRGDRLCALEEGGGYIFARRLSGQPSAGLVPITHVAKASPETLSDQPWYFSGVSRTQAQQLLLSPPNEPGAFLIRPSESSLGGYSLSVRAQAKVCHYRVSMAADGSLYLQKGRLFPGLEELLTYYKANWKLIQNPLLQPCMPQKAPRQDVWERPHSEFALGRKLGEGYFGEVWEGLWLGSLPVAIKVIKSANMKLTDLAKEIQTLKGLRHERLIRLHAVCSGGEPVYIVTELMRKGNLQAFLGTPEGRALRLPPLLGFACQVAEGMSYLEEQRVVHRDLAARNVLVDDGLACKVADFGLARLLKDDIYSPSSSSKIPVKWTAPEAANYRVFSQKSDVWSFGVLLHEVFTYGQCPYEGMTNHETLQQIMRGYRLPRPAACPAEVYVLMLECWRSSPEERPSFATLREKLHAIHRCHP

[6] = target: kinases (KINOMEscan panel) (Homo sapiens, UniProt P21802); details: kinase FGFR2; NEW KINOMEscan
Chain of kinases (KINOMEscan panel) (Homo sapiens, UniProt P21802) (P21802 22-821): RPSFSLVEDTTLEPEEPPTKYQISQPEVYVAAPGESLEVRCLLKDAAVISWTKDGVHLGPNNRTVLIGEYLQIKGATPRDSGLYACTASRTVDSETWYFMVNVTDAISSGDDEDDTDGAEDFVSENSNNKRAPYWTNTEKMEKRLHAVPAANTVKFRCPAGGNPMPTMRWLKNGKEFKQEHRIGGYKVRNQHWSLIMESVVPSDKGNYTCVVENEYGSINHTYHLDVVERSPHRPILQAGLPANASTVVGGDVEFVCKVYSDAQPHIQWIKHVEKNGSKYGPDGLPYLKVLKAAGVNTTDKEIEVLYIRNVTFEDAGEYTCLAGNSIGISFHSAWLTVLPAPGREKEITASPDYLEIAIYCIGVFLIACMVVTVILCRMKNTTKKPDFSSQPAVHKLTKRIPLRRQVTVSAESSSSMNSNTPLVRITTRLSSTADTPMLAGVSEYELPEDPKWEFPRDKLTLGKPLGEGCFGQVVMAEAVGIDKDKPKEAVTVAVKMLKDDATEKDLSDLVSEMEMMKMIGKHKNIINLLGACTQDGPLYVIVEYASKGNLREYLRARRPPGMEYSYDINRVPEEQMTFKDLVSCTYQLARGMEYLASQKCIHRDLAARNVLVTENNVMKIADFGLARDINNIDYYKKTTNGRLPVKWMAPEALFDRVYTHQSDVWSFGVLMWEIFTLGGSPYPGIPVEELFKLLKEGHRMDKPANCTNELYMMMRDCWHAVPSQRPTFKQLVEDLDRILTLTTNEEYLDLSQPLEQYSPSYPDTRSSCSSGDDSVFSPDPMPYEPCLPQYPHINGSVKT

[7] = target: kinases (KINOMEscan panel) (Homo sapiens, UniProt Q02779); details: kinase MAP3K10; NEW KINOMEscan
Chain of kinases (KINOMEscan panel) (Homo sapiens, UniProt Q02779) (Q02779 whole entry): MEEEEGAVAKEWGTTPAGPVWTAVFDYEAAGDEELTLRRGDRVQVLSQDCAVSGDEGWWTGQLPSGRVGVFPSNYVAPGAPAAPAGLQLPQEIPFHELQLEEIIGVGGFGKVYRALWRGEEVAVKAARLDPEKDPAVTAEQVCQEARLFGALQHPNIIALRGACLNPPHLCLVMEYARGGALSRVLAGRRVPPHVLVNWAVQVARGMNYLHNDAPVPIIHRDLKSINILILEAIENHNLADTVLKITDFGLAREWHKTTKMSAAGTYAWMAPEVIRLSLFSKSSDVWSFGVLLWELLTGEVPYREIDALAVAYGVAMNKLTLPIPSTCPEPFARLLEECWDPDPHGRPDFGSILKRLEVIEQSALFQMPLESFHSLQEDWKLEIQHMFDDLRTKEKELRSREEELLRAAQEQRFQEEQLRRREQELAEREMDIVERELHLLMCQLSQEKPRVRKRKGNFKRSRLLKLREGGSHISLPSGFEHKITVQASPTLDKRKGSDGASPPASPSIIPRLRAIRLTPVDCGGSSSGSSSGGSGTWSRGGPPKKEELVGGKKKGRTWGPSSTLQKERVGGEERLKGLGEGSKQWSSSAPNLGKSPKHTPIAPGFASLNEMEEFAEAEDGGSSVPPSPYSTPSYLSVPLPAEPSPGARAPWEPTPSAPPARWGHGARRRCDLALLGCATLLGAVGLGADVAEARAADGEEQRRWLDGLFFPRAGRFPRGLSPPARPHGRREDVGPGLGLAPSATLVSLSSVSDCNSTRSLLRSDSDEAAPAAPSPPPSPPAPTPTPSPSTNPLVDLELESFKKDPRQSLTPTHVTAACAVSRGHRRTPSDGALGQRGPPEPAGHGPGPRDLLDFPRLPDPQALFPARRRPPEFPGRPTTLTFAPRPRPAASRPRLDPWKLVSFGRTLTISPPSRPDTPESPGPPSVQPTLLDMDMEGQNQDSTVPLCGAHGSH

Row | SMILES | KINOMEscan TSSK1B [1] | KINOMEscan EPHB4 [2] | KINOMEscan DCLK1 [3] | KINOMEscan EGFR [4] | KINOMEscan SRMS [5] | KINOMEscan FGFR2 [6] | KINOMEscan MAP3K10 [7]
1 | Cc1cccc(-c2nc(Nc3ccc4nn(C)cc4c3)c3ccccc3n2)n1 [NK167] | 15 | 0 | 49 | 0 | 21 | 0 | 13
2 | Cc1cccc(-c2nc(N(C)c3ccc4ncsc4c3)c3ccccc3n2)n1 [NK-161] | 11 | 0 | 36 | 1 | 26 | 9 | 1

Reference: paper PMC9851200, “Multiparameter phenotypic screening for endogenous TFEB and TFE3 translocation identifies novel chemical series modulating lysosome function” (Autophagy, 2022)
